{
  "source": "patent US9089129B2",
  "about": "“Non-aerosol foaming alcohol hand sanitizer” (AMERICAN STERILIZER COMPANY, priority 2011, dated 2015)",
  "data": [
    {"system": "not listed separately", "test": "Foam quality and stability screen in 70% w/w ethanol solution", "type": "physicochemical", "set-up": "key: Poor: little to no foam generated; Moderate: some foam generated, and/or foam generated collapsed rapidly; Good: large amount of foam was generated and foam was stable (did not collapse rapidly)", "conditions": "approximately one gram of component in 15 grams of 70% w/w ethanol solution (aqueous), shaken by hand for 15 seconds", "procedure": "A number of different components were screened to evaluate their ability to create a stable foam in a 70% w/w ethanol solution (aqueous). For this evaluation, approximately one gram of each component was added to 15 grams of the ethanol solution in a vial.", "values": [
      {"compound": "CCCCCCCCCCCCCCCCCCCCCC[N+](C)(C)C.COS(=O)(=O)[O-]", "note": "[Behentrimonium Methosulfate]", "Foam Profile": "Poor"},
      {"compound": "CCCCCCCCCC[N+](C)(C)CCCCCCCCCC.[Cl-]", "note": "[Didecyl dimethyl ammonium chloride]", "Foam Profile": "Poor"},
      {"compound": "CO[C@H]1CO[C@H]2[C@@H]1OC[C@H]2OC", "note": "[Dimethyl Isosorbide]", "Foam Profile": "Poor"},
      {"compound": "OCC(O)CO", "note": "[Glycerin]", "Foam Profile": "Poor"},
      {"compound": "CCCCCCCCCCCCCC(=O)NCCC[N+](C)(C)CC(O)CO.[Cl-]", "note": "(centres unmarked) [Myristamidopropyl PG-dimonium chloride]", "Foam Profile": "Poor"},
      {"compound": "CCCCCCCC/C=C\\CCCCCCCC[N+](C)(C)Cc1ccccc1.[Cl-]", "note": "[Olealkonium chloride]", "Foam Profile": "Poor"},
      {"compound": "CCCCCCCCCCCC(=O)OC(C)C(=O)OC(C)C(=O)[O-].[Na+]", "note": "(centres unmarked) [Sodium Lauroyl Lactylate]", "Foam Profile": "Poor"},
      {"compound": "CC(O)C(=O)O.CCCCCCCCCCCCCCCCCC(=O)NCCCN(C)C", "note": "[Stearamidopropyl dimethylamine lactate]", "Foam Profile": "Poor"},
      {"compound": "Alkyl Glucoside", "Foam Profile": "Poor"},
      {"compound": "Cocamidopropyl PG-Dimonium Chloride Phosphate", "Foam Profile": "Poor"},
      {"compound": "Glycereth-7 Cocoate", "Foam Profile": "Poor"},
      {"compound": "Glycereth-18 Ethylhexanoate", "Foam Profile": "Moderate"},
      {"compound": "Isostearamidopropyl Morpholine Lactate", "Foam Profile": "Poor"},
      {"compound": "Lauramine Oxide", "Foam Profile": "Poor"},
      {"compound": "POE-2 Coco Amine", "Foam Profile": "Poor"},
      {"compound": "PPG-15 Stearyl Ether", "Foam Profile": "Poor"},
      {"compound": "Quaternium-26", "Foam Profile": "Poor"},
      {"compound": "Quaternium-92", "Foam Profile": "Poor"}
    ]},
    {"system": "Serratia marcescens", "test": "Pigskin model, 1 and 5 inoculation/treatment cycles", "conditions": "1 inoculation/treatment cycle, FIG. 4", "procedure": "(§1) Each sample was evaluated at two different inoculation/treatment cycles, i.e., at 1 inoculation/treatment and 5 inoculations/treatments. Tests were completed using the pigskin model, the inoculant, Serratia marcescens, and 1 and 5 inoculation/treatment cycles. The “pigskin model” is a method designed to simulate a HCPHW test using pigskins prepared according to the method described in U.S. Pat. No. 7,985,773 to […] et al., incorporated herein by reference. In this example, pigskin pairs were inoculated with bacteria, rubbed together for 15 seconds, and allowed to air dry for 1 minute. The two different ethanol solutions having concentrations of 62% w/w and 70% w/w and two different product formulations N and O, one having 62% w/w ethanol (N) and the other having 70% w/w ethanol (O), were applied to pairs of pigskins (0.2 ml per pair/0.1 ml per piece). The pairs of pigskins (having the same treatment) were rubbed together for 30 seconds and allowed to air dry for 4 minutes. Neutralizer was then applied to the pigskins, they were debrided for 30 seconds, serially diluted and plated.", "values": [
      {"compound": "CCO", "note": "[ethanol]", "log reduction": "did provide efficacy"}
    ]},
    {"system": "Serratia marcescens", "test": "Pigskin model, 1 and 5 inoculation/treatment cycles", "conditions": "5 inoculation/treatment cycles, FIG. 4", "procedure": "as §1", "values": [
      {"compound": "CCO", "note": "[ethanol]", "log reduction": "efficacy decreased"}
    ]}
  ]
}
